Data published in patent US6794402B2, “Bicyclic cyclohexylamines and their use as NMDA receptor antagonists” (Warner-Lambert Company, priority 2000, dated 2004).

These compounds were tested against T1, [3H]ifenprodil binding site, rat forebrain membranes (Rattus norvegicus, UniProt P35439+Q00960) (assay: [3H]Ifenprodil binding assay). Settings: 4 nM [3H]-ifenprodil, 2 hours at room temperature.
T1 construct: membrane fraction was prepared from frozen adult rat forebrains; tissue Zivic-Miller Laboratories, Inc; host or cells: adult rat forebrain, washed buffy coat membrane fraction
Description: All buffers and reagents used in assay incubations or to dissolve drugs were prepared using water purified through a Milli-Q reverse osmosis system (Millipore Corp, Bedford, Mass.) and treated with UV emissions. Prior to use in the assays, buffers were further filtered through a sterile Corning filtration unit (Corning Glass Works, Corning, N.Y.) containing a 0.2-micron filter. Buffer used to rinse the membranes on the assay filters was prepared with purified water, but was not refiltered and was stored no longer than 5 days. Stock solutions of the drugs (usually 10 mM) were dissolved in 20 mM HEPES-KOH buffer pH 7.4 (assay buffer) with the addition of 1 to 5 μL of glacial AcOH, if needed to keep them in solution. For eliprodil the stock solution was buffered with the addition of 10% DMSO. All subsequent dilutions from stock were made in buffer.
An extensively washed buffy coat membrane fraction was prepared from frozen adult rat forebrains (Zivic-Miller Laboratories, Inc., Zelienople, Pa.) as described previously (Coughenour L. L., Cordon, J. J., J. Pharmacol. Exp. Ther., 1997;280:584-592) and stored at −80° C. On the day of the assay, pellets were resuspended in 35 mL of assay buffer at pH 7.4 using a Polytron setting 6. After incubation at 37° C. for 30 minutes in a shaking water bath, the homogenate was centrifuged 40,000×g for 10 minutes at 4° C. The pellets were resuspended in fresh buffer and centrifuged 3 more times before final suspension for use in the assay.
[^3H]Ifenprodil Binding. Triplicate incubations were carried out in a volume of 0.5 mL in 1.3 mL polypropylene tubes (Marsh Biomedical Products Inc., Rochester, N.Y.) for 2 hours at room temperature. Incubations contained test agents, membranes (100-200 μg protein) and 4 nM[^3H]-ifenprodil in 20 mM HEPES-KOH buffer, pH 7.4 (assay buffer). Assays were started by addition of the membranes. Bound radioligand was separated by filtration under reduced pressure using a Tomtec Mach II, 96-well cell harvester (Tomtec Inc., Orange, Colo.). Filtration was through Whatman GF/B glass fiber filters (Whatman Ltd, Maidstone, England), which had been soaked for at least 15 minutes in 0.3% polyethylenimine and allowed to air dry. The filters were rinsed with 3 mL of ice cold assay buffer within 6 seconds. Air was allowed to pass through the filters for an additional 10 seconds to remove residual moisture. The filter mat was supported on a cold (−20° C.) teflon support, and filters from individual wells were separated and placed in Mini Poly-Q vials (Beckman Instruments Inc., Fullerton, Calif.) and filled with 4 mL of scintillation cocktail (Beckman Ready Protein^+). Radioactivity retained on the filter was determined by liquid scintillation spectrophotometry. Nonspecific binding was defined as the binding in the presence of 1 mM ifenprodil. Specific binding was 90%.
Data analysis. Binding curves were statistically analyzed for a best one or two site competition fit using GraphPad Prism software (GraphPad Software Inc., San Diego, Calif.). The normalized data was fit by nonweighted nonlinear regression to either [formula]
Control data was entered as 100%, and no parameters were constrained. Inhibition curves were compared by ANOVA with post test comparisons of the logIC50 using Dunnett's multiple comparisons post test or Student's nonpaired, two-tailed t-test (GraphPad InStat software).

T1 sequence (Q00960 27-1482, other chains not shown): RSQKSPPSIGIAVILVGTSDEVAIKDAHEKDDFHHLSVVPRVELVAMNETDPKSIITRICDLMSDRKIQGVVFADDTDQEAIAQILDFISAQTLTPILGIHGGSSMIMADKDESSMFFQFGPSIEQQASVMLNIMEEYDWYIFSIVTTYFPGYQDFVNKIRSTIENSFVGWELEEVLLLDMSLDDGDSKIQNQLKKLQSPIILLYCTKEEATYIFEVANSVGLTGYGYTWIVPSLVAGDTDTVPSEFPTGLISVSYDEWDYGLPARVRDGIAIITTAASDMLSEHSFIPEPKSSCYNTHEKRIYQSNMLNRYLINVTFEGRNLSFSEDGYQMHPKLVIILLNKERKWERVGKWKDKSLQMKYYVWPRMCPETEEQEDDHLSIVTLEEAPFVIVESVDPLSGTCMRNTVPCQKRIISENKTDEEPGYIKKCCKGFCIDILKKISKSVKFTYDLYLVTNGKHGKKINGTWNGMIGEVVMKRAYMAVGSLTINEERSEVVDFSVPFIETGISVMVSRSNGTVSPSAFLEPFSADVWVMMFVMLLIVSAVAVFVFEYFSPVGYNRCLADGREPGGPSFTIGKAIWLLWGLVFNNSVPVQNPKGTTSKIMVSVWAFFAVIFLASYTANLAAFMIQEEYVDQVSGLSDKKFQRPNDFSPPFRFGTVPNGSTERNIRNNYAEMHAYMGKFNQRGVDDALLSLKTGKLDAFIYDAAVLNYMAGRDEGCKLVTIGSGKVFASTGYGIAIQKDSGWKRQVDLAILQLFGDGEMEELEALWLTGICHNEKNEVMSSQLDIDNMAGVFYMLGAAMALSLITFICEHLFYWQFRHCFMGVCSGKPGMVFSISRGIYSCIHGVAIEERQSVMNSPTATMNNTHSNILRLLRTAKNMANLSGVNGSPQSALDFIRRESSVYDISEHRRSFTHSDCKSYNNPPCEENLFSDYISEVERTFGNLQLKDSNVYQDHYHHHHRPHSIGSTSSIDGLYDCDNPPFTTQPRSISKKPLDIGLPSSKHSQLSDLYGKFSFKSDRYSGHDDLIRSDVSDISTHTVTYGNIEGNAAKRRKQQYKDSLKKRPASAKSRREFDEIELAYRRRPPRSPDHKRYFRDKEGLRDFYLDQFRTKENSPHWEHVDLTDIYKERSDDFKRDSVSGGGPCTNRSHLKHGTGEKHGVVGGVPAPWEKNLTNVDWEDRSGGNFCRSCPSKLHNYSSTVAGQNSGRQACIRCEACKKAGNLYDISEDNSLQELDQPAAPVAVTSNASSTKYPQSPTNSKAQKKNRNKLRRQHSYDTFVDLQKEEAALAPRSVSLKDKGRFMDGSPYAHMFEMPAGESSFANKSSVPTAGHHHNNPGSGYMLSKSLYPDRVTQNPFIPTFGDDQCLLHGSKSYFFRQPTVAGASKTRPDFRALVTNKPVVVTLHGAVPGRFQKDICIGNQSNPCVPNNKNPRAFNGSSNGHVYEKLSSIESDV

Compared with `O=C(NCCNC1CCC(c2ccc3[nH]c(=O)oc3c2)CC1)c1ccccc1` (mixture of isomers) [Example 42b, N-{2-[4-(2-Oxo-2,3-dihydrobenzoxazol-6-yl)cyclohexylamino]ethyl}-benzamide], `O=c1[nH]c2ccc([C@H]3CC[C@@H](NCCSc4ccccc4)CC3)cc2o1` [Example 5b, 6-[cis-4-(2-Phenylsulfanylethylamino)cyclohexyl]-3H-benzoxazol-2-one] is 47-fold lower in IC50: 0.98 µM for the first, 0.021 µM for the second.

Going from `Cc1cc(F)ccc1CCCN(C)C1CCC(c2ccc3[nH]c(=O)oc3c2)CC1` (stereo in doubt) [Example 43b, 6-(trans-{4-[Methyl(4-fluoro-2-methylphenylpropyl)amino]cyclohexyl})-3H-benzoxazol-2-one] to `CN(CCCc1ccc(F)cc1F)[C@H]1CC[C@H](c2ccc3[nH]c(=O)oc3c2)CC1` [Example 24b, 6-(trans-4-{[3-(2,4-Difluorophenyl)propyl]methylamino}cyclohexyl)-3H-benzoxazol-2-one], the IC50 falls from 0.056 µM to 0.014 µM (4-fold). The second is the more potent here.

`O=c1[nH]c2ccc([C@H]3CC[C@H](NCCCc4ccc(C(F)(F)F)cc4)CC3)cc2o1` [Example 14, 6-{trans-4-[3-(4-Trifluoromethylphenyl)propylamino]cyclohexyl}-3H-benzoxazol-2-one] and `CCN(CCCc1ccc(C(F)(F)F)cc1)[C@H]1CC[C@H](c2ccc3[nH]c(=O)oc3c2)CC1` [Example 26] are within 1.5-fold of each other in IC50: 0.128 µM for the first, 0.188 µM for the second.

Going from `CN(CCCc1ccc(F)cc1)[C@H]1CC[C@@H](c2ccc3[nH]c(=O)oc3c2)CC1` [Example 19, 6-(cis-4-{[3-(4-Fluorophenyl)propyl]methylamino}cyclohexyl)-3H-benzoxazol-2-one] to `CN(CCCc1ccc(Cl)cc1)[C@H]1CC[C@H](c2ccc3[nH]c(=O)oc3c2)CC1` [Example 38b, 6-(trans-4-{[3-(4-Chlorophenyl)propyl]methylamino}cyclohexyl)-3H-benzoxazol-2-one], the IC50 falls from 0.185 µM to 0.007 µM (26-fold).

`CCN([C@H]1CC[C@H](c2ccc3[nH]c(=O)oc3c2)CC1)[C@H](C)CCc1ccccc1` [Example 27, 6-(trans-4-{Ethyl-[(R)-1-methyl-3-phenylpropyl]amino}cyclohexyl)-3H-benzoxazol-2-one] and `CCN([C@H]1CC[C@H](c2ccc3[nH]c(=O)oc3c2)CC1)[C@@H](C)CCc1ccccc1` [Example 28, 6-(trans-4-{Ethyl-[(S)-1-methyl-3-phenylpropyl]amino}cyclohexyl)-3H-benzoxazol-2-one] are within 1.5-fold of each other in IC50: 0.132 µM for the first, 0.184 µM for the second.

First: O=c1[nH]c2ccc([C@H]3CC[C@H](N(CCO)CCCc4ccc(F)cc4)CC3)cc2o1 [Example 29, 6-{trans-4-[[3-(4-Fluorophenyl)propyl]-(2-hydroxyethyl)amino]cyclohexyl}-3H-benzoxazol-2-one]
Second: NCCN(CCCc1ccc(F)cc1)[C@H]1CC[C@H](c2ccc3[nH]c(=O)oc3c2)CC1 [Example 35, 6-(trans-4-{(2-Aminoethyl)-[3-(4-fluorophenyl)propyl]amino}cyclohexyl)-3H-benzoxazol-2-one]
The IC50 of the first is 9.4-fold lower: 0.018 µM for the first, 0.17 µM for the second. The first is the more potent here.

`O=c1[nH]c2ccc([C@H]3CC[C@H](N(CCCc4ccc(F)cc4)CC4CC4)CC3)cc2o1` [Example 30, 6-(trans-4-{Cyclopropylmethyl-[3-(4-fluorophenyl)propyl]amino}cyclohexyl)-3H-benzoxazol-2-one] and `NC(=O)CN(CCCc1ccc(F)cc1)[C@H]1CC[C@H](c2ccc3[nH]c(=O)oc3c2)CC1` [Example 34, 2-{[3-(4-Fluorophenyl)propyl]-[4-(2-oxo-2,3-dihydro-benzoxazol-6-yl)-cyclohexyl]amino}acetamide] are within 1.5-fold of each other in IC50: 0.219 µM for the first, 0.152 µM for the second.

Compared with `O=c1[nH]c2ccc([C@H]3CC[C@H](N(CCCc4ccc(F)cc4)Cc4ccoc4)CC3)cc2o1` [Example 31, 6-(trans-4-{[3-(4-Fluorophenyl)propyl]furan-3-ylmethylamino}cyclohexyl)-3H-benzoxazol-2-one], `C=CCN(CCCc1ccc(F)cc1)[C@H]1CC[C@H](c2ccc3[nH]c(=O)oc3c2)CC1` [Example 32, 6-(trans-4-{Allyl-[3-(4-fluorophenyl)propyl]amino}cyclohexyl)-3H-benzoxazol-2-one] is 2.9-fold lower in IC50: 0.465 µM for the first, 0.158 µM for the second. The second is the more potent here.

First: CC(C)CN(CCCc1ccc(F)cc1)[C@H]1CC[C@H](c2ccc3[nH]c(=O)oc3c2)CC1 [Example 33, 6-(trans-4-{[3-(4-Fluorophenyl)propyl]isobutylamino}cyclohexyl)-3H-benzoxazol-2-one]
Second: CN(CCCc1cccc(F)c1)[C@H]1CC[C@H](c2ccc3[nH]c(=O)oc3c2)CC1 [Example 47b, 6-(trans-4-{[3-(3-Fluorophenyl)propyl]methylamino}cyclohexyl)-3H-benzoxazol-2-one]
The IC50 of the first is higher: > 1 µM for the first, 0.015 µM for the second. The second is the more potent here.

Going from `CCC[C@@H](CSc1ccc(F)cc1)N(CC)[C@H]1CC[C@H](c2ccc3[nH]c(=O)oc3c2)CC1` [Example 36b, (S)-6-{trans-4-[Ethyl(1-(4-fluorophenylsulfanyl)pentan-2-yl)amino]-cyclohexyl}-3H-benzoxazol-2-one] to `CN(CCCc1ccc(F)cc1Cl)[C@H]1CC[C@H](c2ccc3[nH]c(=O)oc3c2)CC1` [Example 44b, 6-(trans-4-{[3-(2-Chloro-4-fluorophenyl)propyl]methylamino}cyclohexyl)-3H-benzoxazol-2-one], the IC50 falls from > 1 µM to 0.007 µM.

`CN(CCCc1cc(F)cc(F)c1)[C@H]1CC[C@H](c2ccc3[nH]c(=O)oc3c2)CC1` [Example 39b, 6-(trans-{[3-(3,5-Difluorophenyl)propyl]methylamino}cyclohexyl)-3H-benzoxazol-2-one] and `CN(CCCc1ccc(F)c(F)c1)[C@H]1CC[C@H](c2ccc3[nH]c(=O)oc3c2)CC1` [Example 40b, 6-(trans-4-{[3-(3,4-Difluorophenyl)propyl]methylamino}cyclohexyl)-3H-benzoxazol-2-one] are within 1.5-fold of each other in IC50: 0.037 µM for the first, 0.029 µM for the second.

Going from `Cc1ccc(CCCN(C)[C@H]2CC[C@H](c3ccc4[nH]c(=O)oc4c3)CC2)c(C)c1` [Example 41b] to `CN(CCCc1ccc(Cl)cc1F)[C@H]1CC[C@H](c2ccc3[nH]c(=O)oc3c2)CC1` [Example 45b, 6-(trans-4-{[3-(4-Chloro-2-fluorophenyl)propyl]methylamino}cyclohexyl)-3H-benzoxazol-2-one], the IC50 falls from 0.068 µM to 0.007 µM (9.7-fold). The second is the more potent here.

First: CN(CCCc1ccccc1F)[C@H]1CC[C@H](c2ccc3[nH]c(=O)oc3c2)CC1 [Example 46b, 6-(trans-4-{[3-(2-Fluorophenyl)propyl]methylamino}cyclohexyl)-3H-benzoxazol-2-one]
Second: Cc1c(F)cccc1CCCN(C)[C@H]1CC[C@H](c2ccc3[nH]c(=O)oc3c2)CC1 [Example 48b, 6-(trans-4-{[3-(3-Fluoro-2-methylphenyl)propyl]methylamino}cyclohexyl)-3H-benzoxazol-2-one]
The IC50 of the first is 2.2-fold lower: 0.009 µM for the first, 0.02 µM for the second. The first is the more potent here.

First: CN(CCCC1CCCCC1)[C@H]1CC[C@H](c2ccc3[nH]c(=O)oc3c2)CC1 [Example 49b, 6-{trans-4-[(3-Cyclohexylpropyl)methylamino]cyclohexyl}-3H-benzoxazol-2-one]
Second: CC(Cc1ccccc1)CN(C)[C@H]1CC[C@H](c2ccc3[nH]c(=O)oc3c2)CC1 (stereo partly drawn) [Example 50b, 6-(trans-{4-[Methyl(2-methyl-3-phenylpropyl)amino]cyclohexyl})-3H-benzoxazol-2-one]
The IC50 of the first is 16-fold lower: 0.022 µM for the first, 0.351 µM for the second. The first is the more potent here.

For `CN(CC#Cc1ccccc1)[C@H]1CC[C@H](c2ccc3[nH]c(=O)oc3c2)CC1` [Example 51b, 6-(trans-{4-[Methyl(3-phenyl-prop-2-ynyl)amino]cyclohexyl})-3H-benzoxazol-2-one], the IC50 was 0.55 µM.
